In PMC5974751, “NKp44-Derived Peptide Binds Proliferating Cell Nuclear Antigen and Mediates Tumor Cell Death” (Frontiers in Immunology, 2018):

Legend:
[1] = test system: recombinant human PCNA (hPCNA); assay: ELISA binding of biotinylated NKp44-derived peptides to plate-bound recombinant PCNA; settings: biotinylated peptide, 0–7.24 µM (Figure 1A), streptavidin-HRP, TMB, O.D. 650 nm
Procedure: The pET-28 or pMAL-c2x vectors were used to produce soluble human PCNA (hPCNA) in Rosetta™ 2 (DE3) cells. Plasmids containing the mRNA sequence of PCNA or TL1A, APO-E3, HNF4 were transformed into Rosetta™ 2 cells via heat shock and grown on LB agar plates with kanamycin and chloramphenicol. A fresh colony of transformed bacteria was grown overnight in a 5 ml of LB with kanamycin and chloramphenicol an incubator shaker set to 37°C and at 250 rpm. The next day, bacteria cells were diluted 1:100 into a 500 ml of LB with kanamycin and chloramphenicol (to discard dead cells) and grown to an optical density (O.D.) of 0.6–0.8 (λ = 650 nm). Isopropyl β-D-1-thiogalactopyranoside (0.5 mM) was added for the induction of the PCNA production, and cells were further incubated for 4 h at 26°C (hPCNA). Cells were then centrifuged and the pellet was resuspended with solution A (20 mM Tris–HCl pH 8.0, 0.5 M NaCl, 20 mM imidazole), sonicated six times (20 s with 40 s intervals) and sieved through […] (Sartorius Stedim Biotech) filter before loaded on a His-tag or Amylose resin beads. Purification of His-tagged proteins was done using a Gravity-flow Column with “HisPur™ Ni-NTA Resin” Bead kit (Thermo-Scientific) (binding capacity ≤ 60 mg of a 28 kDa 6xHis-tagged protein from a bacterial source per milliliter of settled resin) according to Kits Protocol. Purification of MBP-tagged proteins was done using the Amylose resin beads (Catalog # E8035S).
To determine the interaction between NKp44-derived peptides and PCNA, ELISA plates were coated overnight at 4°C with 2 µg/ml of the recombinant PCNA or TLA1 ([49]), APO-E3 ([50]), HNF4 ([4]), rhFc, rhNKp44-hFc ([12]), rhNKp46-hFc ([51]), and PBS 1× (negative controls). Blocking buffer (PBS + 2.5% skim milk) was applied for 2 h at room temperature, after that the plates were incubated with 0–8 µM of biotinylated NKp44-derived peptides or PBS 1× (background control) for 2 h at room temperature. NKp44-derived peptides binding to PCNA was detected using horseradish peroxidase (HRP)-conjugated to streptavidin (1 h at 1:500 dilution). Following washing, TMB (DAKO, S1599) was added. O.D. was read at 650 nm (Thermo Electron Corporation Multiskan Spectrum). Between each step, wells were washed three times with PBS containing 0.05% Tween 20 (PBST).

[2] = test system: NK92-44-1 cells (NK92 overexpressing NKp44-1 splice variant); assay: IFNγ secretion assay of NK92-44-1 cells co-incubated with PANC-1 cells; format: cell-based, human; settings: NK92-44-1 with HLA-I positive PANC-1, E:T 1:2; peptide 10 or 20 µg/well
Procedure: IFNγ secretion assay and ELISA assay were done as previously described ([11], [12]). NKp44-pep8, pep9, and pep10 (10 or 20 µg) were added to the IFNγ secretion assay.
Figure 1 Recognition of recombinant human PCNA (hPCNA) by NKp44-derived pep8 (NKp44-pep8). (A) ELISA assay representing the binding curve of biotinylated NKp44-derived pep5, pep8, and pep10 at a peptide concentration range of 0–7.24 µM to plate bond hPCNA. (B) IFNγ secretion assay of NK92-44-1 cells co-incubate with the HLA positive cell line PANC-1 (E:T ration of 1:2) in the presence of NKp44-pep8 (10 or 20 μg/well), NKp44-derived pep5 was used as negative control. Note that when we apply to NK92-44-1 pep8 (without target cells), activation of IFNγ secretion is minimal and less/similar to the observed activation when applying the pep5 negative control. (C) ELISA assay of blocking NKp44–proliferating cell nuclear antigen (PCNA) interaction via NKp44-pep8. NKp44-derived pep5 was used as a negative control. No peptide represents the maximal binding capacity of NKp44 to hPCNA. (D) ELISA assay showing the specific recognition of NKp44-pep8 (5 µg/ml) to hPCNA relative to TL1A, APO-E3, HNF4, NKp44-Ig, hNKp46-Ig, hFc. (E) ProteOn array showing the binding of hPCNA at protein concentration range of 0–250 nM to bond NKp44-pep8. 0 nM (X base-line), 15.6 nM (yellow), 31.2 (purple), 62.5 nM (green), 125 nM (blue), and 250 nM (red).

[3] = test system: NKp44–PCNA interaction; assay: ELISA blocking of NKp44-hFc interaction with PCNA; format: binding; settings: peptide 0–10 µM, NKp44-hFc 80 nM, anti-human IgG-HRP, O.D. 650 nm, negative control pep5
Procedure: To determine the ability of NKp44-pep8 to block NKp44-hFc interaction with PCNA, ELISA plates were coated overnight at 4°C with 2 µg/ml of the recombinant PCNA, blocking buffer (PBS + 2.5% skim milk) was applied for 2 h at room temperature, after which the plates were incubated with 0–10 µM of biotinylated NKp44-derived peptides or PBS 1× (100 μl/well, background control) for 2 h at room temperature and then NKp44-hFc (80 nM, 20 µl/well) was added without washing for 1 h at room temperature. NKp44-hFc binding to PCNA was detected using HRP conjugated to antihuman IgG (1 h at 1:400 dilution 100 μl/well). Following washing, TMB (100 μl/well DAKO, S1599) was added. O.D. was read at 650 nm (Thermo Electron Corporation Multiskan Spectrum). Between each step, wells were washed three times with 200 μl/well PBS 1× containing 0.05% Tween 20 (PBST).

VTSSKPRTVAWTSRFTIWAA [pep10, NKp44-derived 20mer peptide, amino acids 67–86]
binding to recombinant hPCNA [1]: also bound to PCNA but to a lesser extent as compared with pep8
IFNγ secretion / NK92 cell function in presence of peptide [2]: but not pep10 could block NKp44–PCNA interaction and upregulate NK92 cell function
inhibition of rhNKp44 binding to PCNA [3]: but not pep10 could block NKp44–PCNA interaction
